Experimental data taken from patent publication US9480278B2, “Diet for altering the nutrient composition of feeder insects” (Mark Finke LLC, priority 2012, dated 2016).
Where two headings read alike, the source gives them in different places.

What was measured:
feeder insects [1] = tested on: feeder insects
in vivo = settings: cricket
feeder insects [2] = test: Lutein and zeaxanthin in diet versus lutein and zeaxanthin in feeder insect; settings: 64.9 mg/kg lutein in diet
Method: (§1) An experiment was performed to determine the levels of lutein and zeaxanthin in a feeder insect diet that would produce lutein and zeaxanthin levels in a feeder insect similar to those found in the wild.

[3] = as above; settings: cricket, whole feeder insect (dry matter), oral
Method: as §1

feeder insects [4] = test: Vitamin E level in feeder insects fed diets with varying levels of vitamin E; type: in vivo, crickets; settings: approximately 21 days, fasted 24 to 36 hours
Method: Captive insectivores fed with current methods have been shown in past studies to be deficient in vitamin E. Feeder insects which contain between approximately 50 and approximately 200 International Units (“IU”) of vitamin E per kilogram dry matter provide health benefits to captive insectivores. All references in this disclosure to concentrations in feeder insects will be based on dry matter measurements, unless otherwise specified. Experiments were performed to determine the levels of vitamin E in a feeder insect diet that would produce in the feeder insect the targeted levels between 50 and 200 IU of vitamin E per kilogram dry matter for consumption by an insectivore. In the experiments, feeder insects were fasted for 24 to 36 hours prior to analysis to ensure that food in the gut was eliminated completely so as not to affect the results. The feeder insects were provided the diet containing varying levels of vitamin E. Vitamin E analysis was then performed using the method as described by Cort, et. al., Vitamin E Content of Feedstuffs Determined by High-Performance Liquid Chromatography Fluorescence, JOURNAL OF AGRICULTURAL AND FOOD CHEMISTRY, Vol. 31, 1330-1333 (1983).
There is a direct relationship between the vitamin E content in the diet and the vitamin E content in the feeder insect. Since the feeder insects were fasted prior to analysis, and the results were collected when the feeder insects were grown to approximately two-thirds of adult-size within approximately 21 days after introduction of the diet, the vitamin E content in the feeder insect is a result of a change in the composition of the tissues of the feeder insect, rather than the consequence of food in the gut of the feeder insect. Regression analysis was performed on the data to establish a best-fit line defined by an equation FI=0.241*D+33.5, where FI is the vitamin E content of feeder insect and D is the vitamin E content in the feeder insect diet. […]

mealworms = test: Vitamin E content of mealworms fed a diet containing added vitamin E; type: in vivo
Method: There is a direct relationship between the vitamin E content in the diet and the vitamin E content in the feeder insect. Since the feeder insects were fasted prior to analysis, and the results were collected when the feeder insects were grown to approximately two-thirds of adult-size within approximately 21 days after introduction of the diet, the vitamin E content in the feeder insect is a result of a change in the composition of the tissues of the feeder insect, rather than the consequence of food in the gut of the feeder insect. Regression analysis was performed on the data to establish a best-fit line defined by an equation FI=0.241*D+33.5, where FI is the vitamin E content of feeder insect and D is the vitamin E content in the feeder insect diet. According to the present inventive method, with this established equation, a diet, fed to the feeder insect, having a vitamin E content of between approximately 69 and approximately 691 IU per kilogram produces the targeted 50 to 200 IU of vitamin E per kilogram dry matter in the feeder insect, respectively.

[5] = 3 milligrams of beta-carotene per kilogram of feeder insect diet
[6] = 65 milligrams of beta-carotene per kilogram of feeder insect diet

## CC1=C(/C=C/C(C)=C/C=C/C(C)=C/C=C/C=C(C)/C=C/C=C(C)/C=C/C2=C(C)CCCC2(C)C)C(C)(C)CCC1 [Beta-carotene, beta-carotene]
Feeder insects [1]; [5]
  share of poultry's vitamin A requirement, by regression: approximately 78%
  share of the rat's vitamin A requirement, by regression: approximately 51%
  vitamin A yielded in feeder insect, by regression: 1,173 IU of vitamin A per kilogram dry matter
Feeder insects [1]; [6]
  share of poultry's vitamin A requirement, by regression: approximately 1600%
  share of the rat's vitamin A requirement, by regression: approximately 1000%
  vitamin A yielded in feeder insect, by regression: 23,000 IU of vitamin A per kilogram dry matter
In vivo; 0.2 mg/kg diet, Beta-carotene in Feeder Insect, 0.2 mg/kg beta-carotene in diet
  concentration at 21 days: 33.3 ng/g
In vivo; 0.3 mg/kg diet, Beta-carotene in Feeder Insect, 0.3 mg/kg beta-carotene in diet
  concentration at 21 days: 33.3 ng/g
In vivo; 3 mg beta-carotene per kg diet, beta-carotene in feeder insect by regression FI=219.2×D-2.92, 3 milligrams of beta-carotene per kilogram of feeder insect diet
  concentration at 21 days: 655 ng/g
In vivo; 11.7 mg/kg diet, Beta-carotene in Feeder Insect, 11.7 mg/kg beta-carotene in diet
  concentration at 21 days: 2720 ng/g
In vivo; 15.3 mg/kg diet, Beta-carotene in Feeder Insect, 15.3 mg/kg beta-carotene in diet
  concentration at 21 days: 3230 ng/g
In vivo; 65 mg beta-carotene per kg diet, beta-carotene in feeder insect by regression FI=219.2×D-2.92, 65 milligrams of beta-carotene per kilogram of feeder insect diet
  concentration at 21 days: 14300 ng/g
In vivo; beta-carotene in feeder insect by regression from Table C, diet with approximately 0.3 to approximately 1,496.4 milligrams of beta-carotene per kilogram
  concentration at 21 days: 62.8 to 328000 ng/g
In vivo; beta-carotene in feeder insect by regression from Table C, diet with approximately 68.4 to approximately 365 milligrams of beta-carotene per kilogram
  concentration at 21 days: 15000 to 80000 ng/g

## CC1=C[C@H](O)CC(C)(C)[C@H]1/C=C/C(C)=C/C=C/C(C)=C/C=C/C=C(C)/C=C/C=C(C)/C=C/C1=C(C)C[C@@H](O)CC1(C)C [Lutein, lutein]
Feeder insects [2]
  Lutein in Feeder Insect: 800 µg/kg dry matter
[3]; 11.6 mg/kg diet
  concentration at 21 days: 33 ng/g
[3]; 13.3 mg/kg diet
  concentration at 21 days: 333 ng/g
[3]; 193.6 mg/kg diet
  concentration at 21 days: 11300 ng/g

## vitamin E
Feeder insects [4]; 31 IU/kg vitamin E in diet
  Vitamin E in Feeder Insect: 38.7 IU/kg dry matter
Feeder insects [4]; 210 IU/kg vitamin E in diet
  Vitamin E in Feeder Insect: 89.2 IU/kg dry matter
Feeder insects [4]; 360 IU/kg vitamin E in diet
  Vitamin E in Feeder Insect: 117.7 IU/kg dry matter
mealworms
  vitamin E content compared with mealworms fed a control diet: more vitamin E
